“Also recorded” adds a separate entry of the source. Like-named read-outs stand apart in the source and are kept apart here.

In one data set the test system is Erysiphe cichoracerum. The experiment in a line: Open-field trial on powdery mildew of melon by foliar treatment. The following applies: Agrimer 540 1 l/ha. In kind it is in vivo. The procedure:
Open-field Trial on Powdery Mildew (Erysiphe cichoracerum) of Melon (Cucumis melo, Rochet Variety) by Foliar Treatment.
(§1) The fungicide used is fosetyl-Al (WG applied at 1.25 kg/ha, i.e. 1000 g/ha of active material) and the algal extract (solution LC, 1 l/ha) is Agrimer 540 from the company Agrimer.
All of these products are used at a dose of 1000 g/ha and the percentage of plants attacked by the disease is determined 15 days after two treatments T1 and T2 (carried out with an interval of 7 days).

The test system of another data set is Erysiphe graminis. The experiment in a line: Open-field test on powdery mildew of wheat by foliar treatment. The format is in vivo. To be noted: winter wheat, fosetyl-Al 1000 g/ha a.m., Agrimer 540 1 l/ha. The procedure:
Open-field Test on Powdery Mildew (Erysiphe graminis) of Wheat (Triticum aestivum, Winter Variety) by Foliar Treatment.
as §1
All these products are used at a rate of 1000 g/ha and the percentage of plants attacked (% of leaves destroyed) by the disease is determined, on the one hand on a foliar stage treated semi-curatively (reading taken 22 days after the treatment T), and on the other hand on a foliar stage treated curatively (reading taken 27 days after the treatment T).

The next data set concerns tobacco cell cultures. In kind it is cell-based, Nicotiana tabacum. From the text:
Fosetyl-Al and phosphorous acid have mainly been selected as potentiators in the biological experimentation, but, for reasons of toxicity of fosetyl-Al on tobacco cell cultures, we replaced it with fosetyl sodium in the cell tests.

For data set [1], the system named is phenylalanine ammonia lyase (PAL). The experiment in a line: PAL activity in tobacco cell cultures after potentiator pretreatment and elicitation. In kind it is cell-based, Nicotiana tabacum. Here is the method: Measurement of the activity of PAL (phenylalanine ammonia lyase): key enzyme in the phenylpropanoid pathway and more particularly in the lignification involved in defense reactions in plants (most particularly in monocotyledon plants).
(§2) The cell suspensions used are suspensions of Nicotiana tabacum BY (bright yellow) obtained from Washington State University (Pullman, USA). They are cultured in the dark, at 24° C. with agitation (120 rpm) and subcultured every 7 days by transferring 10 ml of culture into 70 ml of fresh medium.
(§3) The cells are pretreated 5 days after subculturing (end of the exponential growth phase) and elicited on the 6th day. Two hours before pretreatment, 10 ml of cells are transferred into 25 ml conical flasks. For the phenylalanine ammonia lyase (PAL) and lipoxygenase (LOX) activity analyses and the determination of the salicylic acid (SA), the cells are harvested at the desired time by filtration on Whatman 3 M paper, frozen in liquid nitrogen and stored at −80° C. until the analysis.
The cells (0.5 g) are ground in 0.1 M pH 8.8 borate buffer in the presence of active charcoal and quartz. The grinding ratio is 1/5 (w/v). After centrifugation, 100 μl of cell extract are incubated for 1 h at 37° C. in the presence of 200 μl of 0.1 M pH 8.8 borate buffer and 100 μl of a mixture of 0.1 M pH 8.8 borate buffer and 300 μM L-phenylalanine (labelled and cold mixture); the final solution has a specific activity of 810,000 cpm/ml.
The reaction is quenched by adding a few drops of 9 N H2SO4. 2 ml of H2O are added. The reaction products are extracted by adding 2 ml of an ether/cyclohexane mixture (1/1, v/v). Since the phenylalanine is insoluble in this mixture, the reaction is counted on 1 ml in the presence of “multi-purpose” scintillation liquid.
(§4) In all cases, the pretreatment with the potentiator is carried out 18 hours before the elicitor treatment.
The samples for analysing the physiological effects are taken 4 hours, 12 hours or 24 hours after elicitation. The controls corresponding to a potentiation alone or an elicitation alone are systematically present for each sample taken.

Another data set has as its system lipoxygenase (LOX). The experiment in a line: LOX activity in tobacco cell cultures after potentiator pretreatment and elicitation. The following applies: for LOX activity relative to the corresponding control: 18 h pretreatment; for LOX activity, potentiator applied alone / Effect on LOX activity, potentiator in itself: no elicitor; for Effect on LOX activity, potentiator in itself: conclusion of Example 1. The format is cell-based, Nicotiana tabacum. The procedure: Measurement of the activity of LOX (lipoxygenase) which is a key enzyme in the synthesis of jasmonic acid, another signal molecule.
as §2, §3
The cells (250 mg) are ground in 0.5 ml of extraction buffer in the presence of quartz.
The ground mixture is centrifuged for 15 min at 4° C. and 13,000 rpm. 2.87 ml of 0.1 M pH 6.8 Tris buffer are added to the cell extract, followed by 30 μl of 10 mM linolenic acid. After stirring, the change in the OD is monitored at 234 nm.
as §4
[…] The controls corresponding to a potentiation alone or an elicitation alone are systematically present for each sample taken.

In another data set the test system is salicylic acid (SA). The experiment in a line: Salicylic acid (SA) accumulation in tobacco cell cultures. The format is cell-based, Nicotiana tabacum.
Where [2] appears, read: cells potentiated and elicited with a pectin oligomer, compared with the other conditions.

Procedure for salicylic acid (SA): The samples (0.5 g) of tobacco cells or leaves are ground in liquid nitrogen and grinding is then continued in the presence of 0.8 ml of 90% methanol. A known amount of ^14C-labelled SA (1 nCi, 54 mCi/mol, Sigma) is then added in order to estimate the yield for the recovery of the endogenous SA. The amount of labelled SA added is less than the detection threshold for the analysis. […]
The samples are brought to pH 2 by addition of 2 M HCl and are then heated at 80° C. for one hour. […] 20 ml of this mixture, to which are added 3 ml of scintillation liquid (Ready Gel, Beckmann), are taken for counting of the residual radioactivity, which allows calculation of the SA recovery yield. The contents of total SA determined correspond to the sum of the SA contents in free form and of the SA contents in conjugated form, the SA being released during the hydrolysis.
The elution is programmed on a Waters HPLC system in an isocratic system for 10 min. […] The SA is quantified by fluorometry (λ excitation=315 nm, λ emission=405 nm). […] The amounts of SA injected are calculated by means of comparing the area of the peaks corresponding to SA with that of the standard molecule injected. The SA contents in the samples are then calculated, taking the recovery yield into account. […]

For `CCO[PH](=O)O` [Fosetyl-Al, fosetyl-Al], the “percentage of plants attacked by the disease, % at T2 + 15 days” value in the data set on Erysiphe cichoracerum (T2 7 days after T1, fosetyl-Al 1000 g/ha a.m., untreated control 95.0) was 80.0%. For the same compound, the “percentage of plants attacked by the disease, % at T1 + 15 days” value with Erysiphe cichoracerum (fosetyl-Al 1000 g/ha a.m., untreated control 91.7) was 80.0%. Also, the “% of leaves destroyed at T + 22, semi-curative” value with Erysiphe graminis (untreated control 91.1) was 77.8%. Further, the “% of leaves destroyed at T + 27, curative” value with Erysiphe graminis (untreated control 100) was found to be 100%. In addition, in the data set with tobacco cell cultures, the “Toxicity on tobacco cell cultures” value is given as “toxicity”.
With `OP(O)O` [H3PO3, phosphorous acid], in data set [1], the “Effect of conditioning on PAL activity after elicitation” value is “strong stimulation of the PAL activity; also recorded: greater than that observed in the unconditioned cells”; the “Effect of pretreatment on induction of PAL activity by the elicitor” value is recorded as “markedly amplifies the response to the elicitor”; the “Induction of PAL activity, potentiator applied alone” value is given as “No significant inductive effect; also recorded: do not in themselves have any effect”; the “PAL activity of potentiated and elicited cells (FIG. 21)” value (“PAL activity … (FIG. 21)” for short) is reported as “much higher”. In data set [1], the “PAL activity of pretreated cells versus unconditioned cells” value is given as “always greater than that observed in the unconditioned cells” and the “PAL activity relative to the level of the unconditioned cells” value turned out to be 4 times. Also, the “LOX activity relative to the corresponding control” value with lipoxygenase (LOX) (measured 12 h after elicitation with 2 nM β-megaspermine) is recorded as “about 28 times”. The “LOX activity relative to the corresponding control” value with lipoxygenase (LOX) (measured 21 h after elicitation with 10 μg/ml oligosaccharide elicitor of β-glucan type) is on record as “about 4 times”. Further, in the data set on lipoxygenase (LOX) (30 h (18 h of pretreatment+12 h) after application), the “LOX activity, potentiator applied alone” value is on record as “No inductive effect”. In addition, the “LOX activity, potentiator applied alone” value in the data set with lipoxygenase (LOX) (39 h (18 h of pretreatment+21 h) after application) is listed as “mild inductive effect”. In addition, the “Effect on LOX activity, potentiator in itself” value with lipoxygenase (LOX) was “do not in themselves have any effect”. In addition, in the data set on salicylic acid (SA), the “Effect on synthesis of SA, potentiator in itself” value is on record as “do not in themselves have any effect” and the “Rate of synthesis of SA relative to unconditioned cells” value is listed as “large increase”.
Take `CSC(=O)c1cccc2nnsc12` [BTH, reference compound]: the “PAL activity … (FIG. 21)” value in data set [1] (setting [2]) is on record as “much higher”.
Consider `CCO[PH](=O)O` [fosetyl-Na], for which the “PAL activity of pretreated cells versus unconditioned cells” value in data set [1] (5 mM conditioning 18 h, then 2 nM β-megaspermine (FIG. 9)) is given as “always greater than that observed in the unconditioned cells”. The “Effect of conditioning on PAL activity after elicitation” value in data set [1] (5 mM conditioning 18 h, then 20 μg/ml pectin oligomers) was “maintains the PAL activity at a high level 11 h after the elicitation”. In addition, the “PAL activity … (FIG. 21)” value in data set [1] (setting [2]) is reported as “much higher”. In addition, the “Induction of PAL activity, potentiator applied alone” value in data set [1] (no elicitor) is listed as “No significant effect; also recorded: do not in themselves have any effect”. Further, the “Effect on LOX activity, potentiator in itself” value in the data set with lipoxygenase (LOX) is on record as “do not in themselves have any effect”. Besides, the “Effect on synthesis of SA, potentiator in itself” value with salicylic acid (SA) (no elicitor, conclusion of Example 1) is given as “do not in themselves have any effect”.

These data come from patent US6770303B1, “Use of antifungal and/or antibacterial and/or antiviral compounds” (priority 1998, dated 2004).
